The source of these data is patent US20260015363A1, “SUBSTITUTED PYRIMIDINE-FUSED RING INHIBITOR, METHOD FOR PREPARING SAME, AND USE THEREOF” (Suzhou Zelgen Biopharmaceuticals Co., Ltd., priority 2022, published 2026).

Some results are limits rather than exact numbers.

Assay [1] deals with AsPC-1 (G12D). As to the kind of experiment: KRAS mutant cell proliferation inhibition assay (CellTiter-Glo 3D), AsPC-1. The format is cell-based, human. The note with it: Homo sapiens, ASPC1, 168 h, AsPC-1 (G12D) cells, 7 days. Here is the method: (§1) Positive control: MRTX1133
(§2) • (a) The cells were thawed in T75 cell culture flasks: • (b) When 80%-90% cell confluence was achieved, the cells were passaged.
(§3) The diluted test compound was added to a 384-well cell culture plate using a nanoliter pipetting system, and replicate wells were set. An equal volume of medium was added to the positive control group; an equal volume of DMSO was added to the negative control group. The plate was centrifuged at 1000 rpm at room temperature for 1 min.
(§4) The cells were seeded into a) 384-well culture plate. An equal volume of cells was added to the negative control group, and only an equal volume of medium was added to the positive control group. The plate was centrifuged at 1000 rpm at room temperature for 1 min. The final DMSO concentration in the final compound was 0.5%. The plate was incubated in a thermostatic incubator at 37° C. with 5% CO2 for 7 days.
(§5) CellTiter-Glo® 3D was added to b) 384-well cell culture plate at 20 μL/well. The plate was shaken at 320 rpm in the dark for 20 min, and incubated at room temperature in the dark for 2 h. The luminescence values were read using an Envision multi-mode microplate reader.
(§6) The inhibition rates (IRs) of the test compounds were calculated according to the following formula: IR (%)=(1−(RLU compound−RLU blank control)/(RLU vehicle control−RLU blank control))×100%. The inhibition rates of the compounds at different concentrations were calculated in Excel, and then inhibition curves were plotted and relevant parameters including minimum inhibition rate, maximum inhibition rate and IC50 were calculated using GraphPad Prism software.
In general terms: Cellular ATP, detected with luciferase, serves as a proxy for viable cell number.

For assay [2], the system named is SW480 (G12V). The experiment in a line: KRAS mutant cell proliferation inhibition assay (CellTiter-Glo 3D), SW480. Type of assay: cell-based. The note with it: Homo sapiens, 168 h, SW480 (G12V) cells, 7 days. Here is the method:
as §1, §2, §3, §4, §5, §6

In the case of `CCc1c(F)ccc2cc(O)cc(-c3ncc4c(N5CCC[C@]6(CCO6)C5)nc(OC[C@@]56CCCN5C[C@@]5(CC5(F)F)C6)nc4c3F)c12` (single isomer, unassigned) [Example A-16B], the results for the half-maximal inhibitory concentration (IC50) in assay [1] and in assay [2] were 0.387 µM and 0.66 µM, respectively. In assay [2], `Nc1cc(Cl)c(C(F)(F)F)c(-c2ncc3c(N4CC5COC(C5)C4)nc(OC[C@@]45CCCN4C[C@@]4(CC4(F)F)C5)nc3c2F)c1` (stereo partly drawn) [Example A-32, 3-(4-(6-Oxa-3-azabicyclo[4.2.1]nonan-3-yl)-2-(((1S,7a'S)-2,2-difluorodihydro-1′H,3′H-spiro[cyclopropane-1,2′-pyrrolizin]-7a′ (5′H)-yl)methoxy)-8-fluoropyrido[4,3-d]pyrimidin-7-yl)-5-chloro-4-(trifluoromethyl)aniline] had a 50% inhibitory concentration (IC50) of 0.336 µM. The compound `CCc1c(F)ccc2cc(O)cc(-c3ncc4c(N5CC6COC(C6)C5)nc(OC[C@@]56CCCN5C[C@@]5(CC5(F)F)C6)nc4c3F)c12` (stereo partly drawn) [Example A-33] gave an IC50 in assay [2] of 0.168 µM. On the same count and under the same terms, for `CCc1c(F)ccc2cc(O)cc(-c3ncc4c(N5CCOCC(F)C5)nc(OC[C@@]56CCCN5C[C@@]5(CC5(F)F)C6)nc4c3F)c12` (stereo partly drawn) [Example A-34, 4-(2-(((1S,7a'S)-2,2-Difluorodihydro-1′H,3′H-spiro[cyclopropane-1,2′-pyrrolizin]-7a′ (5′H)-yl)methoxy)-8-fluoro-4-(6-fluoro-1,4-oxazepan-4-yl)pyrido[4,3-d]pyrimidin-7-yl)-5-ethyl-6-fluoronaphthalen-2-ol] the value was 0.0667 µM; for `CCc1c(F)ccc2cc(O)cc(-c3ncc4c(N5CCOCC(F)(F)C5)nc(OC[C@@]56CCCN5C[C@@]5(CC5(F)F)C6)nc4c3F)c12` [Example A-35, 4-(4-(6,6-Difluoro-1,4-oxazepan-4-yl)-2-(((1.S,7a'S)-2,2-difluorodihydro-1′H,3′H-spiro[cyclopropane-1,2′-pyrrolizin]-7a′ (5′H)-yl)methoxy)-8-fluoropyrido[4,3-d]pyrimidin-7-yl)-5-ethyl-6-fluoronaphthalen-2-ol], 0.159 µM. Still for that read-out and setting: for `CCc1c(F)ccc2cc(O)cc(-c3ncc4c(N5CCCCC(F)C5)nc(OC[C@@]56CCCN5C[C@@]5(CC5(F)F)C6)nc4c3F)c12` (stereo partly drawn) [Example A-36, 4-(2-(((1S,7a'S)-2,2-Difluorodihydro-1′H,3′H-spiro[cyclopropane-1,2′-pyrrolizin]-7a′ (5′H)-yl)methoxy)-8-fluoro-4-(3-fluoroazepan-1-yl)pyrido[4,3-d]pyrimidin-7-yl)-5-ethyl-6-fluoronaphthalen-2-ol] the value was 0.102 µM. For the compound `CN(C)C(=O)c1cc2n(n1)CCCN(c1nc(OC[C@@]34CCCN3C[C@@]3(CC3(F)F)C4)nc3c1CCN(c1ccc(F)c4sc(N)c(C#N)c14)C3)C2` [Example B-15, 5-(7-(2-Amino-3-cyano-7-fluorobenzo[b]thiophen-4-yl)-2-(((trans)-2,2-fluorodihydro-1′H,3′H-spiro[cyclopropane-1,2′-pyrrolizin]-7a′ (5′H)-yl)methoxy)-5,6,7,8-tetrahydropyrido[3,4-d]pyrimidin-4-yl)-N,N-dimethyl-5,6,7,8-tetrahydro-4H-pyrazolo[1,5-a][1,4]diazepine-2-carboxamide], the IC50 in assay [1] was > 1 µM. Same read-out and setting: under `CN(C)C(=O)c1cc2n(n1)CCCN(c1nc(OC[C@]34CCCN3C[C@]3(CC3(F)F)C4)nc3c1CCN(c1cccc4ccc(F)c(Cl)c14)C3)C2` [Example B-16, 5-(7-(8-Chloro-7-fluoronaphthalen-1-yl)-2-(((trans)-2,2-2,2-fluorodihydro-1′H,3′H-spiro[cyclopropane-1,2′-pyrrolizin]-7a′ (5′H)-yl)methoxy)-5,6,7,8-tetrahydropyrido[3,4-d]pyrimidin-4-yl)-N,N-dimethyl-5,6,7,8-tetrahydro-4H-pyrazolo[1,5-a][1,4]diazepine-2-carboxamide] stands > 1 µM.

A word on the IC50: it is the midpoint of a concentration-inhibition curve. Higher therefore signals a need for much substance.
